Results published in US20260183396A1, “CXCR3 OVEREXPRESSION IN CAR-NK CELLS PRIMES MIGRATION/HOMING INTO THE TUMOR MICROENVIRONMENT” (DANA-FARBER CANCER INSTITUTE, INC., priority 2022, published 2026).

Legend:
Assay type in all cases: cell-based, human
MPM explants = experiment: Dynamic single-cell RNA sequencing of MPM explants
Description: Dynamic single-cell RNA sequencing and data analysis. The previous protocol (Sehgal et al., J. Clin. Invest. 131:e135038 (2021)) was adapted to test S1 explants from MPM PDOTS. […] After 24 hours of treatment in a ULA dish, tumor spheroids were digested with trypsin in a 37° C. incubator for 5 minutes to obtain single-cell suspensions. Cells were loaded onto a 10× chromium instrument (10× Genomics) per manufacturer's instructions. ScRNA libraries were generated using the single cell 3′ reagent kit (10× Genomics) per the user guide. Quality control of the completed libraries was performed using a bioanalyzer high sensitivity DNA kit (Agilent) and then sequenced using the Illumina NextSeq 500 platform.
Raw sequencing reads were processed using the 10× Genomics CellRanger bioinformatics pipeline v6.0.1. The assembled matrix was then fed into the standard workflow of the R package, Seurat v4.0.4. Genes that were expressed in at least 3 cells, and only cells that expressed at least […], were kept for downstream processing. Additionally, cells expressing more than 7000 genes and cells with more than 10% of UMIs mapping to mitochondrial genes were removed from the analysis. All the samples were prepared and sequenced together on the same platform. The filtered matrix was log-normalized using global scaling in Seurat. UMI and mitochondrial transcript content were used as regression parameters. The normalized matrix was scaled and centered gene-wise, and then underwent dimensionality reduction using principal component analysis (PCA) on the highly varying genes. After visual inspection of the PCA elbow plot, the top 10 PCs were chosen for further analysis. Clustering was performed on the chosen PCs using the shared nearest neighbor algorithm in Seurat with default parameters.
A Uniform Manifold Approximation and Projection (UMAP) map was computed and plotted with the DimPlot module of Seurat. Cluster differential expression analysis was performed in Seurat using the FindMarkers command using the Wilcoxon rank sum test without thresholds. Contour plots overlayed onto UMAPs were generated with R package ggplot2 (Wickham, Springer-Verlag New York (2016)).
Cell types were identified based on comparative analysis of the signatures published previously (Han et al., Cell 172:1091-1107 (2018); Muhl et al., Nat. Commun. 11:3953 (2020); Correia et al., Proc. Natl. Acad. Sci. U.S.A. 115:E5980-E5989 (2018); Gueugnon et al., Am. J. Pathol. 178:1033-42 (2011)), as well as marker genes identified in this study, which were used to remove genes ubiquitously expressed across cell subpopulations. Collagen-encoding genes were added to the fibroblast signature.

MPM tumor cell lines = experiment: 3D vascular model of NK cell migration; settings: presence and absence of the vascular barrier
Description: 3D vascular model. To generate the tumor-vascular model, H226 spheroids were mixed with collagen rat tail hydrogel (2.5 mg/ml) and injected into the center gel region of the 3D microfluidic chamber (10-15 μL per each microfluidic chamber). After incubation for 30 minutes at 37° C. in sterile humidity chambers, the side wall of one flanked channel (media channel) was coated with a 150 μg/ml collagen solution in PBS to allow for better adhesion of eCs to the channel. After 15 mins, the channel was washed once with media. To create the 3D vessel, 25 μL cell suspension of 3×10^6 cells/ml human umbilical vein endothelial cells (HUVECs; C2519AS, Lonza) were injected in the media channel coated with collagen. The channel was rotated twice to create a confluent hollow-lumen 3D vessel. To allow the cells to attach to the media-gel interface and form a monolayer, the chip was incubated with cells face down for 15 mins. Next, 50 μL cell suspension was reinjected, and the chip was flipped to cover the upper part of the 3D vascular channel. After 90 mins of incubation in the humidity chamber at 37° C., cell culture media was gently added to both channels and further incubated to form a confluent monolayer. After vessel formation, NK cells (labelled with cell tracker) were added to the 3D vessel at 2:1 E:T ratio. […] NK cell migration+/−vessel was quantified at 24 hours. Image capture and analysis was performed using a fluorescence confocal microscope and processing software. The 3D vascular channels were rinsed in PBS and fixed with 4% PFA for 15 min at room temperature. Cell membranes were permeabilized with 0.1% Triton X-100 for 5 min at room temperature and washed twice with PBS. HUVEC cells were stained for F-actin with green phalloidin (Thermo Fisher Scientific A12379) and Hoechst 33342. Images were captured on a Nikon Eclipse 80i fluorescence microscope equipped with Z-stack (Prior) and CoolSNAP CCD camera (Roper Scientific).

MPM cell lines = experiment: CellTiter-Glo viability in MPM cell lines; settings: cultured in vitro
Description: CellTiter-Glo luminescent cell viability assay. Cell viability was assessed using the CellTiter-Glo Luminescent Cell Viability assay (Promega, G7571) according to manufacturer's instructions. […] All conditions were tested in triplicate and plates were read on a Tecan Infinite Mplex Microplate Reader.

Nc1ncnc2c1ncn2[C@@H]1O[C@@H]2COP(=O)([S-])O[C@@H]3[C@H](O)[C@@H](COP([O-])(=S)O[C@H]2[C@H]1O)O[C@H]3n1cnc2c(N)ncnc21.[Na+].[Na+] (some centres unmarked) [ADU-S100]
BST2 avg log2FC (MPM explants; 10 μM ADU-S100): 2.86 | C15orf48 avg log2FC (MPM explants; 10 μM ADU-S100): 3.02 | CCL5 avg log2FC (MPM explants; 10 μM ADU-S100): 2.10 | CMPK2 avg log2FC (MPM explants; 10 μM ADU-S100): 2.19 | CXCL1 avg log2FC (MPM explants; 10 μM ADU-S100): 2.20 | CXCL10 avg log2FC (MPM explants; 10 μM ADU-S100): 3.10 | CXCL11 avg log2FC (MPM explants; 10 μM ADU-S100): 2.45 | HES4 avg log2FC (MPM explants; 10 μM ADU-S100): 2.07 | HLA-B avg log2FC (MPM explants; 10 μM ADU-S100): 2.09 | HLA-C avg log2FC (MPM explants; 10 μM ADU-S100): 2.08 | IFI6 avg log2FC (MPM explants; 10 μM ADU-S100): 4.76 | IFI27 avg log2FC (MPM explants; 10 μM ADU-S100): 4.89 | IFI30 avg log2FC (MPM explants; 10 μM ADU-S100): 2.24 | IFI35 avg log2FC (MPM explants; 10 μM ADU-S100): 2.69 | IFIT1 avg log2FC (MPM explants; 10 μM ADU-S100): 3.89 | IFIT2 avg log2FC (MPM explants; 10 μM ADU-S100): 3.99 | IFIT3 avg log2FC (MPM explants; 10 μM ADU-S100): 4.01 | IFITM1 avg log2FC (MPM explants; 10 μM ADU-S100): 3.42 | IL1B avg log2FC (MPM explants; 10 μM ADU-S100): 2.23 | IL1RN avg log2FC (MPM explants; 10 μM ADU-S100): 2.21 | IL32 avg log2FC (MPM explants; 10 μM ADU-S100): 3.43 | IRF7 avg log2FC (MPM explants; 10 μM ADU-S100): 2.44 | ISG15 avg log2FC (MPM explants; 10 μM ADU-S100): 5.19 | ISG20 avg log2FC (MPM explants; 10 μM ADU-S100): 3.89 | LAP3 avg log2FC (MPM explants; 10 μM ADU-S100): 2.78 | LY6E avg log2FC (MPM explants; 10 μM ADU-S100): 3.24 | MDK avg log2FC (MPM explants; 10 μM ADU-S100): 2.01 | MX1 avg log2FC (MPM explants; 10 μM ADU-S100): 2.84 | OAS1 avg log2FC (MPM explants; 10 μM ADU-S100): 3.40 | OAS3 avg log2FC (MPM explants; 10 μM ADU-S100): 2.02 | OASL avg log2FC (MPM explants; 10 μM ADU-S100): 3.01 | PLAAT4 avg log2FC (MPM explants; 10 μM ADU-S100): 2.38 | PLSCR1 avg log2FC (MPM explants; 10 μM ADU-S100): 2.64 | RSAD2 avg log2FC (MPM explants; 10 μM ADU-S100): 4.43 | SAA1 avg log2FC (MPM explants; 10 μM ADU-S100): 2.46 | STAT1 avg log2FC (MPM explants; 10 μM ADU-S100): 2.09 | TFPI2 avg log2FC (MPM explants; 10 μM ADU-S100): 2.88 | TNFSF13B avg log2FC (MPM explants; 10 μM ADU-S100): 2.03 | WARS avg log2FC (MPM explants; 10 μM ADU-S100): 3.24 | WFDC2 avg log2FC (MPM explants; 10 μM ADU-S100): 2.06 | IL-33 expression in CAFs (MPM explants; 24 hours): potent and unique STING agonist induction | CXCR3 ligand expression (CXCL9, CXCL10, CXCL11) (MPM explants; 24 hours, primarily MSLN positive tumor cells (cluster 1) and CAFs (clusters 4, 5)): strongly induced | TGFB1 expression (MPM explants; MPM cluster 1 relative to clusters 0, 3): downregulated | NECTIN2 (CD112) expression in tumor cells (MPM explants; NK cell activating ligand): increased | HLA-A/B/C expression in tumor cells (MPM explants; NK cell inhibitory ligands): dose-dependent increases | ANGPTL4 avg log2FC (MPM explants; STING agonist treatment): −1.48 | CCDC80 avg log2FC (MPM explants; STING agonist treatment): −1.57 | CEMIP avg log2FC (MPM explants; STING agonist treatment): −1.20 | ID1 avg log2FC (MPM explants; STING agonist treatment): −1.07 | IGFBP4 avg log2FC (MPM explants; STING agonist treatment): −1.42 | KRT19 avg log2FC (MPM explants; STING agonist treatment): −1.81 | LDHA avg log2FC (MPM explants; STING agonist treatment): −1.16 | NDRG1 avg log2FC (MPM explants; STING agonist treatment): −1.07 | PABPC1 avg log2FC (MPM explants; STING agonist treatment): −1.11 | PGK1 avg log2FC (MPM explants; STING agonist treatment): −1.04 | RPL41 avg log2FC (MPM explants; STING agonist treatment): −1.09 | RPS29 avg log2FC (MPM explants; STING agonist treatment): −1.10 | RPSA avg log2FC (MPM explants; STING agonist treatment): −1.10 | SERPINB3 avg log2FC (MPM explants; STING agonist treatment): −2.15 | SERPINB4 avg log2FC (MPM explants; STING agonist treatment): −1.25 | SERPINB7 avg log2FC (MPM explants; STING agonist treatment): −1.73 | TGFBI avg log2FC (MPM explants; STING agonist treatment): −2.38 | TPI1 avg log2FC (MPM explants; STING agonist treatment): −1.11 | TUBA1A avg log2FC (MPM explants; STING agonist treatment): −1.02 | abundance of CD8 positive cell populations, including Tregs (MPM explants; high-dose treatment): depletion | PVR (CD155) expression in tumor cells (MPM explants; predominantly inhibitory ligand): decreased expression | NK cell migration (MPM tumor cell lines): enhanced NK cell migration | cytotoxicity in MPM cell lines (MPM cell lines): did not cause cytotoxicity
